Test results taken from patent US20240067693A1, “POLYPEPTIDES AND USES THEREOF” (MEDIMMUNE LIMITED, priority 2020, published 2024).
Numbered stars: 1 amine (or outer) side, 2 acyl side, 3 side chain; on linkers, the order of the positions; unused ones are H or OH. Bridge positions count the residues as written; N and C are the ends. Square brackets hold non-standard residues; d marks the D form. Side chains are listed from the residue outwards. Ends that are not written are not given here. Peptide text beside a SMILES is read from it. * marks the point of attachment. C18 diacid = O=C(O)CCCCCCCCCCCCCCCCC(=O)*; γGlu = O=C(O)[C@H](CCC(=O)[*:2])N[*:1]; Aib = CC(C)(N)C(=O)O

Assays:
[1] = target: T1, rat calcitonin receptor (rat CTR) (Rattus norvegicus, UniProt P32214); assay: cAMP production in HEK cells with stable recombinant expression of rat calcitonin receptor (rat CTR); format: cell-based; conditions: assay buffer with 0.1% BSA
T1 construct: expressed in transfected cells
T1 sequence (P32214 25-516): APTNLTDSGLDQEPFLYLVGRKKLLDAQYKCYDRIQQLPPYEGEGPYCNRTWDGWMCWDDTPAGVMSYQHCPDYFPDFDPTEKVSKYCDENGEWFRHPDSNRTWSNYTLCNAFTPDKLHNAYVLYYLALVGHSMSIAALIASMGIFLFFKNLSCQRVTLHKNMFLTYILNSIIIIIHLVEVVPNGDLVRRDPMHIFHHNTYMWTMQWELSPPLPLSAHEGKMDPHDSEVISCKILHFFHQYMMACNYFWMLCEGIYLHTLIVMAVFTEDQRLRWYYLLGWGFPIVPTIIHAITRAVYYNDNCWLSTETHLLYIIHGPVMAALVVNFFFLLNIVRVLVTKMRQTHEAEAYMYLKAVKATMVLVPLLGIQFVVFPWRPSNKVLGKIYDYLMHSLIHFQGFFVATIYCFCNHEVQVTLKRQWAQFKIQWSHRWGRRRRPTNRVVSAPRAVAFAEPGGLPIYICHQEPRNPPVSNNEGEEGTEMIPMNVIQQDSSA
Method in brief: (§1)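 Receptor-expressing cells (human receptors in 1321N1, rat receptors in HEK) incubated 30 min at room temperature with peptide in HBSS/HEPES pH 7.4, 0.1% BSA, 0.5 mM IBMX. cAMP read by HTRF; EC50 from 4-parameter fit as % of maximal amylin or calcitonin response.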

[2] = Pharmacokinetic determination via IV and SC administration in Sprague Dawley rats; conditions: male, rat, plasma, 20 nmol/kg
Procedure: PK studies were performed to determine the half-life (T1/2) of test peptides. T1/2 describes the time taken for the maximum plasma concentration (Cmax) of a test substance to halve its steady-state concentration when in circulation.
Male SD rats were purchased from Si Bei Fu Laboratory Animal Technology Co. Ltd (China). The animals were 6-8 weeks old with body weights of 200-300 g on the dosing date. The animals were housed in a 12-hour light/12-hour dark cycle environment and were fasted overnight before dosing. The body weight of the animals were recorded before dosing, 24 h and 48 h post dosing . Animals had free access to food and drinks, and the food consumption was quantified every day.
Test articles were administered at 20 nmol/kg. Blood samples were collected from each animal via Jugular vein.
The blood samples were transferred into eppendorf low binding tube containing K2 EDTA. Above 0.150 mL blood were collected at each time point. Blood samples were centrifuged at 4,000 g for 5 minutes at 4° C. to obtain plasma. The plasma samples were stored frozen at −75±15° C. until analysis.
Concentrations of the test articles in the plasma samples were analyzed using a LC-MS/MS method. Data acquisition was performed by LabSolution version 5.89 software (Shimadzu, Kyoto, Japan). Data statistics were performed using Excel 97-2003 software. The pharmacokinetic parameters of test articles were calculated using a non-compartmental approach with Phoenix™ VVinNonlin® 6.1.
The following pharmacokinetic parameters were calculated, whenever possible from the plasma concentration versus time data: • IV administration: T1/2, C0, AUClast, AUCinf, MRTinf, Cl, Vss, Number of Points for Regression. • SC administration: Tmax, Cmax, AUClast, AUCinf, MRTinf, F, Number of Points for Regression.

[3] = target: T2, human calcitonin receptor (hCTR) (Homo sapiens, UniProt P30988); assay: cAMP production in 1321N1 cells with stable recombinant expression of human calcitonin receptor (hCTR); format: cell-based; conditions: cAMP, 1321N1 cells, assay buffer with 0.1% BSA; read-out: EC50 (pM) hCTR
T2 construct: expressed in transfected cells
T2 sequence (P30988 25-474): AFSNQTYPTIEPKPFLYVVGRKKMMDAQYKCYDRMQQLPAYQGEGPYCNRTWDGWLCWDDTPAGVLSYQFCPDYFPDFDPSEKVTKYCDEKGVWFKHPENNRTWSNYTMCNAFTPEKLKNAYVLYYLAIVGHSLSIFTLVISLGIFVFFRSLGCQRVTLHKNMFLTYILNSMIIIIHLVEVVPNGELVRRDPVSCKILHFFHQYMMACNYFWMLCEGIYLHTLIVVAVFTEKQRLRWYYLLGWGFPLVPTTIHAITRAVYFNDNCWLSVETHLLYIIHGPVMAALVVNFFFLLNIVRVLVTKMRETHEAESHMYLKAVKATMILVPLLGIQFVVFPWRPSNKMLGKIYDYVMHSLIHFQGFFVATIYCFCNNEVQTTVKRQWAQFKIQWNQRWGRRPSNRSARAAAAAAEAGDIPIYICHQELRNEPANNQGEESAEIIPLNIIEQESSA
Method in brief: as §1

[4] = target: T3, rat amylin receptor (calcitonin receptor co-expressed with receptor activity modifying protein, RAMP3) (Rat AMYR3) (Rattus norvegicus, UniProt P32214+Q9JJ73); assay: cAMP production in HEK cells with stable recombinant expression of rat amylin receptor (Rat AMYR3); format: cell-based; conditions: assay buffer with 0.1% BSA
T3 construct: expressed in transfected cells
T3 sequence (P32214 25-516): T1 sequence (P32214 25-516)
T3 sequence (Q9JJ73 23-147 partner): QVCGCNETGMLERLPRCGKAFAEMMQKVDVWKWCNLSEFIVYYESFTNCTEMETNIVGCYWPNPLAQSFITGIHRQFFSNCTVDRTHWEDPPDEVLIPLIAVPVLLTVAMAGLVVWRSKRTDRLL
Method in brief: as §1

[5] = target: T4, human amylin receptor (calcitonin receptor co-expressed with receptor activity modifying protein, RAMP3) (hAMYR3) (Homo sapiens, UniProt O60896+P30988); assay: cAMP production in 1321N1 cells with stable recombinant expression of human amylin receptor (hAMYR3); format: cell-based
T4 construct: expressed in transfected cells
T4 sequence (P30988 25-474): T2 sequence (P30988 25-474)
T4 sequence (O60896 24-148 partner): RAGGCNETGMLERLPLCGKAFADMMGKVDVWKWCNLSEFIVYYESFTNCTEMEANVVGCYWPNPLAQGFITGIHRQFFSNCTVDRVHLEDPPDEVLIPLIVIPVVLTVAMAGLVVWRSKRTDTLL
Method in brief: as §1

[6] = tested on: lean rats; assay: Rat acute food intake study; format: in vivo; conditions: lean male Sprague Dawley rats, 20 nmol/kg subcutaneously
Method in brief: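 Male Sprague Dawley rats (n=7/group), fasted 6 h, received 20 nmol/kg test compound or 60 nmol/kg pramlintide subcutaneously 30 min before food return at dark onset. Food intake recorded automatically in home cages over 3 days, binned hourly and analysed as cumulative dark-period intake; body weight taken daily.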

[7] = Roth et al. Br J Pharmacol 2012; cited from earlier work

| EC50 [1] [pM] | half-life ([2]; iv) [h] | half-life ([2]; sc) [h] | EC50 [3] [pM] | EC50 [4] [pM] | Ratio (selectivity hAMYR vs hCTR, ratio of EC50 values at the two receptors) ([5]; EC50 hCTR / EC50 hAMYR3) | EC50 ([5]; cAMP, 1321N1 cells, assay buffer with 0.1% BSA, read-out: EC50 (pM) hAMYR3) [pM] | Molecule | Cummulative food intake (% vehicle treated intake) At 12 h ([6]; at 12 h) [% vehicle treated intake] | Cummulative food intake (% vehicle treated intake) At 24 h ([6]; at 24 h) [% vehicle treated intake] | Cummulative food intake (% vehicle treated intake) At 48 h ([6]; at 48 h) [% vehicle treated intake] | terminal half-life in rats [7] |
| --- | --- | --- | --- | --- | --- | --- | --- | --- | --- | --- | --- |
| 522 | 6.9 | 9.3 | 1200 | 5.6 | 9.2 | 130 | CC[C@H](C)[C@H](NC(=O)[C@@H]1CCCN1C(=O)CNC(=O)[C@H](Cc1ccccc1)NC(=O)[C@H](CC(N)=O)NC(=O)[C@H](CC(N)=O)NC(=O)[C@H](CO)NC(=O)[C@H](CO)NC(=O)[C@H](Cc1c[nH]cn1)NC(=O)C(C)(C)NC(=O)[C@H](CC(C)C)NC(=O)[C@H](Cc1ccccc1)NC(=O)[C@H](CC(N)=O)NC(=O)[C@H](C)NC(=O)[C@H](CC(C)C)NC(=O)[C@H](CCCNC(=N)N)NC(=O)[C@H](CCC(N)=O)NC(=O)[C@@H](NC(=O)[C@H](C)NC(=O)[C@@H]1CSSC[C@H](NC(=O)[C@@H](N)CCCCNC(=O)CC[C@H](NC(=O)CCCCCCCCCCCCCCCCC(=O)O)C(=O)O)C(=O)N[C@@H](CC(N)=O)C(=O)N[C@@H]([C@@H](C)O)C(=O)N[C@@H](C)C(=O)N[C@@H]([C@@H](C)O)C(=O)N1)[C@@H](C)O)C(=O)N[C@@H](CC(C)C)C(=O)N1CCC[C@H]1C(=O)N1CCC[C@H]1C(=O)N[C@H](C(=O)N[C@@H](CC(N)=O)C(=O)N[C@H](C(=O)NCC(=O)N[C@@H](CO)C(=O)N[C@@H](CC(N)=O)C(=O)N[C@H](C(=O)N[C@@H](Cc1ccc(O)cc1)C(N)=O)[C@@H](C)O)C(C)C)[C@@H](C)O [Peptide 149] (H-K([γGlu-C18 diacid])CNTATCATQRLANFL[Aib]HSSNNFGPILPPTNVGSNTY-NH2; disulfide 2-7; N-terminus assumed) | 31 | 31.8 | 17.5 |  |
|  |  |  |  |  |  |  | amylin (KCNTATCATQRLANFLVHSSNNFGAILSSTNVGSNTY; not fully specified (C-terminus, bridges); cysteine pairing not given here; UniProt P10997 34-70, looked up) [native amylin, of which pramlintide is a synthetic analogue with three proline substitutions] |  |  |  | around 13 minutes |
